From US20110130370A1, “Pharmaceutical composition comprising a strontium salt, vitamin D and A cyclodextrin” (LES LABORATORIES SERVIER, priority 2009, published 2011)

Assay: Stability of the vitamin D3+RAMEB complex at 40° C./75% RH in sealed amber glass pill containers
Type: physicochemical
Experimental: The stability of the vitamin D3+RAMEB complex of Example 1B at 40° C./75% RH was tested and compare to the stability of: 1) pure vitamin D3, 2) a concentrate of vitamin D3 in powder form (DSM).
The study is carried out in pill containers of sealed amber glass (stopper of type for antibiotics, chlorobutyl, grey, D13—natural aluminium crimp-on cap D20 mm, tear-off lid).

## C=C1CC[C@H](O)C/C1=C/C=C1\CCC[C@]2(C)[C@@H]([C@H](C)CCCC(C)C)CC[C@@H]12 [pure vitamin D3, cholecalciferol]
t0
  % vitamin D3: 98.0%
t0 + 3 weeks, 40° C./75% RH
  % vitamin D3: 20.3%
t0 + 6 weeks, 40° C./75% RH
  % vitamin D3: 23.1%
